Test results as given in PMC11085077, “Designing Antitrypanosomal and Antileishmanial BODIPY Derivatives: A Computational and In Vitro Assessment” (Molecules, 2024).
Several values for one entry are separate records, joined by “and”; a condition that tells them apart may be missing. Equal entries are not always repeated.

What was measured:
[1] = tested on: MRC-5 cell line (human lung fibroblast); assay: Cytotoxicity, alamarBlue assay; type: cell-based; details: 72 h incubation, error reported as σ
Protocol: The in vitro antitrypanosomal and antileishmanial activity of the BODIPY derivatives were evaluated on the bloodstream form (BSF) of T. brucei and the promastigote form of L. major parasites. The toxicity of the compounds was determined after 72 h of incubation using the alamarBlue assay (for T. brucei) and the MTT assay (for L. major). The cytotoxicity of the compounds on a healthy human cell line (human lung fibroblast, MRC-5) was also determined after 72 h of incubation using the alamarBlue assay. The data were expressed as the half maximal inhibitory concentration (IC50). The selectivity index (SI) of each derivative was calculated by dividing the IC50 of MRC-5 cells into the IC50 of T. brucei or L. major. MRC-5 cell line (human lung fibroblast) was grown in a monolayer at 37 °C, 5% CO2 in DMEM medium (1 g/L glucose) supplemented with 10% hiFBS, 100 U/mL penicillin, […] and 2 mM L-glutamine. Cytotoxicity was measured in MRC-5 through alamarBlue® assay (ThermoFisher Scientific). The stock solutions of the compounds were prepared in DMSO and the final DMSO percentage in each well was adjusted to be less than 1%. A total of 5 × 10^3 cells per mL were seeded in 96-well plates (100 μL/well) with 24 h of incubation time before compound addition at 37 °C, 5% CO2. Then, the compounds were added at increasing concentrations (from 0 to 100 μM) and the plates were incubated for 72 h. A total of 20 μL of resazurin solution (110 ng/mL) was added to each well and cells were incubated for 4 h. Then, cells were lysed with 50 μL/well of 3% SDS. The plate was incubated at 37 °C for an extra hour and then, the fluorescence intensity was measured at the Infinite F200 plate reader (TECAN Austria, GmbH), exciting at 550 nm and recording the emission at 590 nm. The results are expressed as the concentration of a compound that reduces cell growth by 50% versus untreated control cells (IC50). Data are presented as the average of at least three independent measurements, all conducted in triplicate conditions.

L. major promastigotes = assay: Antileishmanial activity, MTT-based assay; type: cell-based, Leishmania major; details: for Selectivity Index (SI) L. major: SI = IC50 MRC-5/IC50 parasite; for IC50: promastigotes, 72 h incubation, MTT, error reported as σ; for antileishmanial activity (in words): classification used for docking analysis
Protocol: The in vitro antitrypanosomal and antileishmanial activity of the BODIPY derivatives were evaluated on the bloodstream form (BSF) of T. brucei and the promastigote form of L. major parasites. The toxicity of the compounds was determined after 72 h of incubation using the alamarBlue assay (for T. brucei) and the MTT assay (for L. major). The cytotoxicity of the compounds on a healthy human cell line (human lung fibroblast, MRC-5) was also determined after 72 h of incubation using the alamarBlue assay. The data were expressed as the half maximal inhibitory concentration (IC50). The selectivity index (SI) of each derivative was calculated by dividing the IC50 of MRC-5 cells into the IC50 of T. brucei or L. major. L. major (MHOM/IL/80/Friedlin) promastigotes were cultured at 28 °C, 5% CO2 in modified RPMI-1640 medium (Invitrogen, Carlsbad, CA, USA) supplemented with 10% hiFBS [49]. Parasites were maintained in culture in their […] growth phase (below 2 million parasites per mL for T. brucei and 10 million parasites per mL for L. major). The antileishmanial activity of the BODIPY derivatives was assessed using an MTT-based assay (Sigma-Aldrich, St. Louis, MO, USA). The stock solutions of the compounds were prepared in DMSO and the final DMSO percentage in each well was adjusted to be less than 1%. A total of 4 × 10^6 parasites per mL were incubated at 28 °C in 96-well plates (50 μL/well) alone or in the presence of an increasing concentration of compounds DMSO for 72 h. A total of 10 μL of MTT (5 mg/mL) were added to each well and parasites were incubated for 4 h at 28 °C. Finally, cells were lysed with 50 μL/well of 20% SDS. The plate was incubated at 37 °C for an extra hour and then, absorbance was measured at the Infinite F200 plate reader (TECAN Austria, GmbH, Grödig, Austria) at a wavelength of 540 nm. The IC50 was calculated as described above. Data are presented as the average of at least three independent measurements, all conducted in triplicate conditions.

T. brucei BSF = assay: Antitrypanosomal activity, alamarBlue assay; type: cell-based, Trypanosoma brucei; details: for Selectivity Index (SI) T. brucei: SI = IC50 MRC-5/IC50 parasite; for IC50: bloodstream form, 72 h incubation, alamarBlue, error reported as σ; for antitrypanosomal activity (in words): classification used for docking analysis
Protocol: The in vitro antitrypanosomal and antileishmanial activity of the BODIPY derivatives were evaluated on the bloodstream form (BSF) of T. brucei and the promastigote form of L. major parasites. The toxicity of the compounds was determined after 72 h of incubation using the alamarBlue assay (for T. brucei) and the MTT assay (for L. major). The cytotoxicity of the compounds on a healthy human cell line (human lung fibroblast, MRC-5) was also determined after 72 h of incubation using the alamarBlue assay. The data were expressed as the half maximal inhibitory concentration (IC50). The selectivity index (SI) of each derivative was calculated by dividing the IC50 of MRC-5 cells into the IC50 of T. brucei or L. major.
T. brucei (Lister 427, antigenic type MiTat 1.2, clone 221a, bloodstream forms, “single marker” S427 (S16)) were cultured at 37 °C, 5% CO2 in HMI-9 medium supplemented with 10% heat-inactivated fetal bovine serum (hiFBS, Invitrogen, Carlsbad, CA, USA), as previously described.
The antitrypanosomal activity of the BODIPY derivatives was determined by the alamarBlue® assay (ThermoFisher Scientific, Waltham, MA, USA). The stock solutions of the compounds were prepared in DMSO and the final DMSO percentage in each well was adjusted to be less than 1%. A total of 2 × 10^4 parasites per mL were incubated at 37 °C, 5% CO2 in 96-well plates (50 μL/well) alone or in the presence of an increasing concentration of compounds for 72 h. A total of 20 μL of resazurin solution (110 ng/mL) was then added to each well, and the parasites were incubated for 4 h at 37 °C. Finally, cells were lysed with 50 μL per well of SDS 3%. The plate was incubated at 37 °C for an extra hour and then, fluorescence intensity was measured with an Infinite F200 plate reader (Tecan Austria, GmbH, Grödig, Austria), exciting at 550 nm and recording the emission at 590 nm. The results are expressed as the concentration of a compound that reduces cell growth by 50% versus untreated control cells (IC50). Data are presented as the average of at least three independent measurements, all conducted in triplicate conditions.

[2] = MRC5, healthy human lung fibroblasts

SMILES	IC50 (L. major promastigotes)	IC50 (T. brucei BSF)	IC50 (L. major promastigotes; Leishmania major)	IC50 (T. brucei BSF; Trypanosoma brucei)	IC50 ([1]; healthy human lung fibroblasts)	Selectivity Index (SI) L. major (L. major promastigotes)	Selectivity Index (SI) T. brucei (T. brucei BSF)	antileishmanial activity (in words) (L. major promastigotes)	antitrypanosomal activity (in words) (T. brucei BSF)	IC50 [1, 2]
CC1=CC(C)=[N+]2C1=C(c1cccs1)c1c(C)cc(C)n1[B-]2(F)F [Compound 1f]	64.5 ± 8.43 µM	36.9 ± 7.43 µM			58 ± 4.76 µM	0.90	1.57			
CC1=CC(C)=[N+]2C1=C(c1ccccc1)c1c(C)cc(C)n1[B-]2(F)F [Compound 1a]	19.7 ± 3.94 µM	38.2 ± 7.29 µM			67.2 ± 4.39 µM	3.42	1.76			
CC1=CC(C)=[N+]2C1=C(c1ccc(N(c3ccccc3)c3ccccc3)cc1)c1c(C)cc(C)n1[B-]2(F)F [Compound 1d]	> 100 µM	48.8 ± 3.29 µM			91.3 ± 6.31 µM	<0.91	1.87			
CC1=CC(C)=[N+]2C1=C(c1ccc3ccccc3n1)c1c(C)cc(C)n1[B-]2(F)F [Compound 1h]	> 100 µM	77.4 ± 3.46 µM			95.6 ± 3.45 µM	<0.96	1.24			
CC1=CC(C)=[N+]2C1=C(c1ccc(N(C)C)c3ccccc13)c1c(C)cc(C)n1[B-]2(F)F [Compound 1b]	4.84 ± 1.56 µM	18.2 ± 3.63 µM			76.8 ± 5.33 µM	16 and 15.93	4.21	present antileishmanial activity		
CC1=CC(C)=[N+]2C1=C(c1cc3sccc3s1)c1c(C)cc(C)n1[B-]2(F)F [Compound 1i]	92.2 ± 10 µM	61.5 ± 10.9 µM			96.8 ± 4.5 µM	1.05	1.58			
CC1=CC(C)=[N+]2C1=C(c1nccs1)c1c(C)cc(C)n1[B-]2(F)F [Compound 1g]	> 100 µM	55.7 ± 1.65 µM			82.8 ± 1.2 µM	<0.83	1.49			
CCn1c2ccccc2c2cc(C3=C4C(C)=CC(C)=[N+]4[B-](F)(F)n4c(C)cc(C)c43)ccc21 [Compound 1e]	> 100 µM	18.7 ± 2.67 µM			88.9 ± 3.82 µM	<0.89	4.77			
CC1=CC(C)=[N+]2C1=C(c1c3ccccc3cc3ccccc13)c1c(C)cc(C)n1[B-]2(F)F [Compound 1c]	5.41 ± 0.43 µM	77.1 ± 2.98 µM			82.14 ± 0.03 µM	18	1.07	present antileishmanial activity		

Second part, led by results:

IC50 (L. major promastigotes)	IC50 (T. brucei BSF)	IC50 (L. major promastigotes; Leishmania major)	IC50 (T. brucei BSF; Trypanosoma brucei)	SMILES	IC50 ([1]; healthy human lung fibroblasts)	Selectivity Index (SI) L. major (L. major promastigotes)	Selectivity Index (SI) T. brucei (T. brucei BSF)	antileishmanial activity (in words) (L. major promastigotes)	antitrypanosomal activity (in words) (T. brucei BSF)	IC50 [1, 2]
19.7 ± 3.21 µM	12.4 ± 4.02 µM			CC1=C(C=O)C(C)=[N+]2C1=C(c1cccs1)c1c(C)cc(C)n1[B-]2(F)F [Compound 2f]	80.9 ± 1.06 µM	4.10	6.54	does not present antileishmanial activity	present antitrypanosomal activity	
10.3 ± 1.59 µM	6.17 ± 2.35 µM			CC1=C(C=O)C(C)=[N+]2C1=C(c1c3ccccc3cc3ccccc13)c1c(C)cc(C)n1[B-]2(F)F [Compound 2c]	66.9 ± 7.65 µM	6.47	11 and 10.84	present antileishmanial activity	present antitrypanosomal activity	
84.39 ± 0.32 µM	27.9 ± 5.42 µM			CC1=CC(C)=[N+]2C1=C(c1ccc(N(C)C)c3ccccc13)c1c(C)c(-c3nc4ccccc4[nH]3)c(C)n1[B-]2(F)F [Compound 3b]	> 100 µM	>1.18	>3.59			
> 100 µM	22.7 ± 1.88 µM			CC1=C(C=O)C(C)=[N+]2C1=C(c1ccc(N(c3ccccc3)c3ccccc3)cc1)c1c(C)cc(C)n1[B-]2(F)F [Compound 2d]	81.1 ± 3.9 µM	<0.81	3.56			
> 100 µM	74.7 ± 6.93 µM			CC1=C(C=O)C(C)=[N+]2C1=C(c1ccccc1)c1c(C)cc(C)n1[B-]2(F)F [Compound 2a]	91.33 ± 0.66 µM	<0.91	1.22			
15.8 ± 1.31 µM	2.84 ± 0.04 µM			CC1=CC(C)=[N+]2C1=C(c1ccc(N(C)C)c3ccccc13)c1c(C)c(C=O)c(C)n1[B-]2(F)F [Compound 2b]	69.1 ± 4.9 µM	4.39	24 and 24.34	present antileishmanial activity	present antitrypanosomal activity	
		3.13 ± 0.13 µM	14.2 ± 0.31 µM	CC1=C(C=O)C(C)=[N+]2C1=C(c1c3ccccc3cc3ccccc13)c1c(C)c(C=O)c(C)n1[B-]2(F)F [Compound 3c]		6.91	1.53	present antileishmanial activity	present antitrypanosomal activity	21.7 ± 3.46 µM
		> 100 µM	38.3 ± 0.93 µM	CC1=C(C=O)C(C)=[N+]2C1=C(c1ccc(N(c3ccccc3)c3ccc(C=O)cc3)cc1)c1c(C)cc(C)n1[B-]2(F)F [Compound 3d]		<0.87	2.28			87.1 ± 3.28 µM
20.7 ± 1.79 µM	15.2 ± 0.86 µM			CCn1c2ccccc2c2cc(C3=C4C(C)=C(C=O)C(C)=[N+]4[B-](F)(F)n4c(C)cc(C)c43)ccc21 [Compound 2e]	89.7 ± 9.08 µM	4.33	5.89			
